Measured values as given in EPA's ToxRefDB 2.
Values belong to the compound of their own block, whether it stands above or below them.

Experiments:
rat [1] = conditions: Subchronic oral toxicity in rodents, fischer, Gavage/Intubation, dose end: 24 week, group: systemic
mouse [2] = conditions: Carcinogenicity; b6c3f1; Oral; Gavage/Intubation; dose end: 2 year; group: systemic; systemic / pathology microscopic / stomach / carcinoma + systemic / pathology microscopic / stomach / papilloma + systemic / in life …
rat [3] = conditions: Carcinogenicity, fischer, Oral, Gavage/Intubation, dose end: 2 year, group: systemic
mouse [4] = conditions: Subchronic oral toxicity in rodents, b6c3f1, Gavage/Intubation, dose end: 20 week, group: systemic, systemic / pathology microscopic / liver / hyperplasia + systemic / pathology microscopic / stomach / hyperkeratosis + systemic / pathology …
rat [5] = conditions: Combined chronic toxicity/carcinogenicity; sprague dawley; Oral; Gavage/Intubation; dose end: 52 week; group: systemic; systemic / pathology microscopic / stomach / [other] + systemic / pathology microscopic / stomach / carcinoma + systemic / pathology …
rat [6] = conditions: Subchronic oral toxicity in rodents, fischer, Gavage/Intubation, dose end: 13 week, group: systemic
rat [7] = conditions: Combined chronic toxicity/carcinogenicity, fischer, Oral, Gavage/Intubation, dose end: 105 week, group: systemic
rat [8] = conditions: Fertility (Segment I), sprague dawley, Oral, Gavage/Intubation, dose end: 0 day
mouse [9] = conditions: Combined chronic toxicity/carcinogenicity, b6c3f1, Oral, Gavage/Intubation, dose end: 104 week, group: systemic
mouse [10] = conditions: Subchronic oral toxicity in rodents, b6c3f1, Gavage/Intubation, dose end: 13 week, group: systemic
rat [11] = conditions: Multigenerational reproductive toxicity study, sprague dawley, Oral, Gavage/Intubation, dose end: 2 generation
[12] = systemic / in life observation / body weight / body weight gain + systemic / in life observation / mortality / mortality + systemic / …
[13] = systemic / pathology microscopic / blood / leukemia + systemic / pathology microscopic / stomach / carcinoma + systemic / pathology …
[14] = systemic / pathology microscopic / stomach / carcinoma + systemic / pathology microscopic / stomach / papilloma + systemic / pathology …
[15] = systemic / in life observation / body weight / body weight + systemic / pathology gross / sperm measure / sperm motility
[16] = systemic / in life observation / body weight / body weight + systemic / pathology microscopic / pituitary gland / hyperplasia + systemic / …
[17] = systemic / pathology microscopic / kidney / mineralization + systemic / pathology microscopic / kidney / nephropathy
[18] = group: maternal, reproductive / reproductive performance / fertility / fertility
[19] = group: parental, systemic / in life observation / body weight / body weight gain + systemic / in life observation / food consumption / food consumption + …
[20] = group: parental, systemic / pathology microscopic / testes / delayed spermiation, retained spermatids + systemic / pathology microscopic / testes / immature …
[21] = systemic / pathology microscopic / liver / eosinophilic focus + systemic / pathology microscopic / liver / clear cell focus
[22] = systemic / pathology microscopic / liver / eosinophilic focus + systemic / pathology microscopic / liver / clear cell focus + systemic / …
[23] = systemic / clinical chemistry / thyroxine (t4) / thyroxine (t4), total + systemic / hematology / reticulocyte / reticulocyte + systemic / …
[24] = group: offspring, systemic / in life observation / body weight / offspring (pup) weight
[25] = group: parental, systemic / in life observation / body weight / body weight + systemic / in life observation / body weight / dam weight + systemic / in life …
[26] = group: parental, systemic / in life observation / water consumption / water consumption + systemic / pathology gross / sperm measure / sperm morphology
[27] = group: reproductive, reproductive / offspring survival early / live fetuses / live fetuses
[28] = group: reproductive, reproductive / offspring survival early / live fetuses / live fetuses + reproductive / reproductive performance / gestational length / …

Structure (SMILES): c1ccc(C2CO2)cc1 (stereo unspecified) [Styrene oxide]
- LOAEL (rat [1]; [12]): > 3000 mg/kg/day
- NEL (rat [1]; [12]): 360 mg/kg/day
- NOAEL (rat [1]; [12]): ≥ 3000 mg/kg/day
- LEL (rat [1]; systemic / pathology microscopic / liver / hyperplasia): 750 mg/kg/day
- LEL (mouse [2]): 375 mg/kg/day
- LOAEL (mouse [2]): > 750 mg/kg/day
- NEL (mouse [2]): < 375 mg/kg/day
- NOAEL (mouse [2]): ≥ 750 mg/kg/day
- LOAEL (rat [3]; [13]): > 550 mg/kg/day
- NOAEL (rat [3]; [13]): ≥ 550 mg/kg/day
- LEL (rat [3]; [14]): 275 mg/kg/day
- NEL (rat [3]; [14]): < 275 mg/kg/day
- LEL (mouse [4]): 900 mg/kg/day
- LOAEL (mouse [4]): > 900 mg/kg/day
- NEL (mouse [4]): 600 mg/kg/day
- NOAEL (mouse [4]): ≥ 900 mg/kg/day
- LEL (rat [5]): 50 mg/kg/day
- LOAEL (rat [5]): > 250 mg/kg/day
- NEL (rat [5]): < 50 mg/kg/day
- NOAEL (rat [5]): ≥ 250 mg/kg/day

- LEL (rat [8]; [18]): 600 mg/kg/day
- NEL (rat [8]; [18]): 300 mg/kg/day
- LEL (rat [8]; [20]): 150 mg/kg/day
- NEL (rat [8]; [20]): < 150 mg/kg/day
Structure (SMILES): O=C(O)c1cc(N=Nc2ccc(S(=O)(=O)Nc3ccccn3)cc2)ccc1O [Sulfasalazine]
- LEL (rat [6]; [15]): 84 mg/kg/day
- NEL (rat [6]; [15]): < 84 mg/kg/day
- LOAEL (rat [6]; [16]): 338 mg/kg/day
- NOAEL (rat [6]; [16]): 169 mg/kg/day
- NOAEL (rat [7]; systemic / organ weight / kidney / absolute + systemic / pathology microscopic / kidney / hyperplasia): 168 mg/kg/day
- LOAEL (rat [7]; systemic / organ weight / kidney / absolute + systemic / pathology microscopic / kidney / hyperplasia + systemic / in life observation / …): 338 mg/kg/day
- LEL (rat [7]; [17]): 84 mg/kg/day
- NEL (rat [7]; [17]): < 84 mg/kg/day
- LOAEL (rat [8]; [18]): > 600 mg/kg/day
- NOAEL (rat [8]; [18]): ≥ 600 mg/kg/day
- LOAEL (rat [8]; [19]): > 600 mg/kg/day
- NOAEL (rat [8]; [19]): ≥ 600 mg/kg/day
- LOAEL (mouse [9]; [21]): 675 mg/kg/day
- NOAEL (mouse [9]; [21]): < 675 mg/kg/day
- LEL (mouse [9]; [22]): 675 mg/kg/day
- NEL (mouse [9]; [22]): < 675 mg/kg/day
- LEL (mouse [10]; [23]): 675 mg/kg/day
- NEL (mouse [10]; [23]): < 675 mg/kg/day
- LOAEL (mouse [10]; systemic / pathology microscopic / liver / hypertrophy): 1350 mg/kg/day
- NOAEL (mouse [10]; systemic / pathology microscopic / liver / hypertrophy + systemic / clinical chemistry / alanine aminotransferase (alt/sgpt) / alanine …): 675 mg/kg/day
- LEL (rat [11]; [24]): 100 mg/kg/day
- LOAEL (rat [11]; [24]): > 400 mg/kg/day
- NEL (rat [11]; [24]): < 100 mg/kg/day
- NOAEL (rat [11]; [24]): ≥ 400 mg/kg/day
- LOAEL (rat [11]; [25]): > 400 mg/kg/day
- NOAEL (rat [11]; [25]): ≥ 400 mg/kg/day
- LEL (rat [11]; [26]): 100 mg/kg/day
- NEL (rat [11]; [26]): < 100 mg/kg/day
- LEL (rat [11]; [27]): 100 mg/kg/day
- NEL (rat [11]; [27]): < 100 mg/kg/day
- LOAEL (rat [11]; [28]): > 400 mg/kg/day
- NOAEL (rat [11]; [28]): ≥ 400 mg/kg/day
